Laboratory results as given in ChEMBL document CHEMBL1932922, “Synthesis, antitubercular evaluation and 3D-QSAR study of N-phenyl-3-(4-fluorophenyl)-4-substituted pyrazole derivatives” (Bioorg Med Chem Lett, 2012).

System: Mycobacterium tuberculosis
Experiment: Antituberculosis activity against Mycobacterium tuberculosis H37Rv ATCC 27294 by modified BACTEC 460 method
Format: functional, organism-based
Details: for IC50 / IC90: Mycobacterium tuberculosis, H37Rv ATCC 27294

| SMILES | pIC90 | IC50 (read-out: pIC50 (converted)) [µM] | IC90 [µM] | IC50 (read-out: IC50) [µM] |
| --- | --- | --- | --- | --- |
| Cc1ccc(C2=NN[C@@H](c3cn(-c4ccccc4)nc3-c3ccc(F)cc3)C2)cc1 | 5.39 | 5.37 |  |  |
| Nc1nc(-c2ccccc2)cc(-c2cn(-c3ccccc3)nc2-c2ccc(F)cc2)n1 | 5 | 5.89 | 9.94 | 5.94 |
| Fc1ccc(-c2nn(-c3ccccc3)cc2[C@H]2CC(c3ccc(Cl)cc3)=NN2)cc1 | 4.16 | 43.7 | 68.7 | 43.3 |
| COc1ccc(C2=NN[C@@H](c3cn(-c4ccccc4)nc3-c3ccc(F)cc3)C2)cc1 | 4.91 | 0.468 | 12.3 | 0.47 |
| Nc1nc(-c2ccc(Cl)cc2)cc(-c2cn(-c3ccccc3)nc2-c2ccc(F)cc2)n1 | <3.65 | 95.5 | > 226 | 95.5 |
| O=C(/C=C/c1cn(-c2ccccc2)nc1-c1ccc(F)cc1)c1ccccc1 | 4.79 | 10.5 | 16.3 | 10.5 |
| COc1ccc(C(=O)/C=C/c2cn(-c3ccccc3)nc2-c2ccc(F)cc2)cc1 | 5 | 6.46 | 10.1 | 6.39 |
| Cc1ccc(C(=O)/C=C/c2cn(-c3ccccc3)nc2-c2ccc(F)cc2)cc1 | 5.1 | 7.24 | 7.96 | 7.18 |
| O=C(/C=C/c1cn(-c2ccccc2)nc1-c1ccc(F)cc1)c1ccc(Cl)cc1 | 4.15 | 33.9 | 71.3 | 33.9 |
| O=C(/C=C/c1cn(-c2ccccc2)nc1-c1ccc(F)cc1)c1ccc(F)cc1 | 5.09 | 7.08 | 8.09 | 7.14 |
| O=C(/C=C/c1cn(-c2ccccc2)nc1-c1ccc(F)cc1)c1ccc(O)cc1 | 5.07 | 7.41 | 8.47 | 7.46 |
| O=C(/C=C/c1cn(-c2ccccc2)nc1-c1ccc(F)cc1)c1ccccc1O | 4.34 | 26.3 | 45.4 | 26.2 |
| O=C(/C=C/c1cn(-c2ccccc2)nc1-c1ccc(F)cc1)c1ccc([N+](=O)[O-])cc1 | 4.27 | 12.6 | 53.5 | 12.7 |
| O=C(/C=C/c1cn(-c2ccccc2)nc1-c1ccc(F)cc1)c1ccc(Br)cc1 | 4.74 | 9.77 | 18.1 | 9.77 |
| O=C(/C=C/c1cn(-c2ccccc2)nc1-c1ccc(F)cc1)c1cccs1 | 4.87 | 8.13 | 13.5 | 8.08 |
| Oc1ccc(C2=NN[C@@H](c3cn(-c4ccccc4)nc3-c3ccc(F)cc3)C2)cc1 | 4.3 | 30.9 | 49.8 | 31 |
| Oc1ccccc1C1=NN[C@@H](c2cn(-c3ccccc3)nc2-c2ccc(F)cc2)C1 | 4.5 | 28.2 | 31.7 | 28.1 |
| O=[N+]([O-])c1cccc(C2=NN[C@@H](c3cn(-c4ccccc4)nc3-c3ccc(F)cc3)C2)c1 | 4.16 | 38.9 | 68.7 | 39 |
| Fc1ccc(-c2nn(-c3ccccc3)cc2[C@H]2CC(c3ccc(Br)cc3)=NN2)cc1 | 4.64 | 7.94 | 22.9 | 7.9 |
| Nc1ccc(C2=NN[C@@H](c3cn(-c4ccccc4)nc3-c3ccc(F)cc3)C2)cc1 | 3.9 | 74.1 | 127 | 74.4 |
| O=C(c1ccccc1)N1N=C(c2ccccc2)C[C@@H]1c1cn(-c2ccccc2)nc1-c1ccc(F)cc1 | 4.06 | 50.1 | 86.4 | 50.4 |
| COc1ccc(C2=NN(C(=O)c3ccccc3)[C@@H](c3cn(-c4ccccc4)nc3-c3ccc(F)cc3)C2)cc1 | 4.62 | 13.8 | 23.8 | 13.8 |
| Cc1ccc(C2=NN(C(=O)c3ccccc3)[C@@H](c3cn(-c4ccccc4)nc3-c3ccc(F)cc3)C2)cc1 | 5.46 | 3.02 | 3.48 | 3.02 |
| O=C(c1ccccc1)N1N=C(c2ccc(Cl)cc2)C[C@@H]1c1cn(-c2ccccc2)nc1-c1ccc(F)cc1 | <3.72 | 51.3 | > 192 | 51.4 |
| O=C(c1ccccc1)N1N=C(c2ccc(F)cc2)C[C@@H]1c1cn(-c2ccccc2)nc1-c1ccc(F)cc1 | 5.49 | 2.63 | 3.22 | 2.65 |
| O=C(c1ccccc1)N1N=C(c2ccc([N+](=O)[O-])cc2)C[C@@H]1c1cn(-c2ccccc2)nc1-c1ccc(F)cc1 | <3.73 | 57.5 | > 187 | 57.4 |

| SMILES | pIC90 | IC50 (read-out: pIC50 (converted)) [µM] | IC90 [µM] | IC50 (read-out: IC50) [µM] |
| --- | --- | --- | --- | --- |
| O=C(c1ccccc1)N1N=C(c2cccc([N+](=O)[O-])c2)C[C@@H]1c1cn(-c2ccccc2)nc1-c1ccc(F)cc1 | 3.99 | 42.7 | 101 | 42.4 |
| O=C(c1ccccc1)N1N=C(c2ccc(Br)cc2)C[C@@H]1c1cn(-c2ccccc2)nc1-c1ccc(F)cc1 | 4.12 | 38 | 75.7 | 37.8 |
| O=C(c1ccccc1)N1N=C(c2cccs2)C[C@@H]1c1cn(-c2ccccc2)nc1-c1ccc(F)cc1 | 4.05 | 46.8 | 88.7 | 46.9 |
| O=NN1N=C(c2ccccc2O)C[C@@H]1c1cn(-c2ccccc2)nc1-c1ccc(F)cc1 | <3.63 | 117 | > 234 | 119 |
| O=NN1N=C(c2ccc([N+](=O)[O-])cc2)C[C@@H]1c1cn(-c2ccccc2)nc1-c1ccc(F)cc1 | 4.39 | 25.1 | 40.5 | 25.3 |
| O=NN1N=C(c2cccc([N+](=O)[O-])c2)C[C@@H]1c1cn(-c2ccccc2)nc1-c1ccc(F)cc1 | 4.48 | 22.4 | 33.4 | 22.5 |
| O=NN1N=C(c2ccc(Br)cc2)C[C@@H]1c1cn(-c2ccccc2)nc1-c1ccc(F)cc1 | 4.47 | 21.4 | 33.7 | 21.4 |
| Nc1ccc(C2=NN(N=O)[C@@H](c3cn(-c4ccccc4)nc3-c3ccc(F)cc3)C2)cc1 | 4.42 | 20.9 | 37.8 | 20.9 |
| O=NN1N=C(c2cccs2)C[C@@H]1c1cn(-c2ccccc2)nc1-c1ccc(F)cc1 | 4.33 | 26.3 | 46.3 | 26.4 |
| Cc1ccc(-c2cc(-c3cn(-c4ccccc4)nc3-c3ccc(F)cc3)[nH]c(=S)n2)cc1 | 4.45 | 22.4 | 35.5 | 22.2 |
| Fc1ccc(-c2nn(-c3ccccc3)cc2-c2cc(-c3ccc(Cl)cc3)nc(=S)[nH]2)cc1 | 4.74 | 10.2 | 18 | 10.3 |
| Oc1ccc(-c2cc(-c3cn(-c4ccccc4)nc3-c3ccc(F)cc3)[nH]c(=S)n2)cc1 | <3.64 | 69.2 | > 227 | 69.2 |
| Oc1ccccc1-c1cc(-c2cn(-c3ccccc3)nc2-c2ccc(F)cc2)[nH]c(=S)n1 | 4.95 | 8.32 | 11.2 | 8.29 |
| O=[N+]([O-])c1ccc(-c2cc(-c3cn(-c4ccccc4)nc3-c3ccc(F)cc3)[nH]c(=S)n2)cc1 | 4.88 | 12 | 13.1 | 12.2 |
| O=[N+]([O-])c1cccc(-c2cc(-c3cn(-c4ccccc4)nc3-c3ccc(F)cc3)[nH]c(=S)n2)c1 | 4.37 | 28.2 | 43 | 27.9 |
| Fc1ccc(-c2nn(-c3ccccc3)cc2-c2cc(-c3ccc(Br)cc3)nc(=S)[nH]2)cc1 | 4.42 | 115 |  |  |
| Nc1ccc(-c2cc(-c3cn(-c4ccccc4)nc3-c3ccc(F)cc3)[nH]c(=S)n2)cc1 | <3.64 | 21.9 | > 228 | 22.1 |
| Fc1ccc(-c2nn(-c3ccccc3)cc2-c2cc(-c3cccs3)nc(=S)[nH]2)cc1 | 4.06 | 22.4 | 86.4 | 22.6 |
| Nc1nc(-c2ccc(F)cc2)cc(-c2cn(-c3ccccc3)nc2-c2ccc(F)cc2)n1 | 4.07 | 37.2 | 84.3 | 36.8 |
| Nc1nc(-c2ccc(O)cc2)cc(-c2cn(-c3ccccc3)nc2-c2ccc(F)cc2)n1 | 6.05 | 0.468 | 0.88 | 0.47 |
| Nc1nc(-c2ccccc2O)cc(-c2cn(-c3ccccc3)nc2-c2ccc(F)cc2)n1 | 4.18 | 57.5 | 65.9 | 57 |
| Nc1nc(-c2ccc([N+](=O)[O-])cc2)cc(-c2cn(-c3ccccc3)nc2-c2ccc(F)cc2)n1 | <3.66 | 75.9 | > 220 | 75.4 |
| Nc1nc(-c2cccc([N+](=O)[O-])c2)cc(-c2cn(-c3ccccc3)nc2-c2ccc(F)cc2)n1 | <3.66 | 52.5 | > 220 | 52.9 |
| Nc1nc(-c2ccc(Br)cc2)cc(-c2cn(-c3ccccc3)nc2-c2ccc(F)cc2)n1 | 4.84 | 10.7 | 14.5 | 10.6 |
| Nc1ccc(-c2cc(-c3cn(-c4ccccc4)nc3-c3ccc(F)cc3)nc(N)n2)cc1 | 4.82 | 13.8 | 15 | 13.8 |
